Patent publication US20160038505A1, “METHODS AND COMPOSITIONS FOR TREATING IMPULSE CONTROL DISORDER, ANXIETY-RELATED DISORDERS, VIOLENCE AND/OR ANGER, OR REGULATING FOOD INTAKE” (priority 2014, published 2016)
“Also recorded” adds a separate entry of the source.

Key:
[1] = Plasma toxicokinetics in dogs, 14 day repeat dose study; format: in vivo, dog
Protocol: Noribogaine HCl was administered to groups of 4 male and 4 female dogs by single oral gavage daily for 14 days at doses of 0, 0.5, 1.0 and 5.0 mg/kg/day. An additional group of 4 male and 4 female dogs received either the vehicle control or 5.0 mg/kg/day for 14 days and were held for an additional 28 days after cessation of dosing to assess recovery from any potential drug-induced changes. The study was conducted under GLP guidelines and included comprehensive examinations of clinical signs, body weight, clinical pathology parameters, ophthalmologic examinations, ECG recordings and analyses of plasma for bioanalytical measurement of drug levels at appropriate intervals during the study. At the termination of the dosing phase and at the termination of the recovery phase, all dogs were subjected to a complete post-mortem examination including gross examination of major organs and histologic examination of an extensive list of tissues. Additional sections of brain were obtained from cerebrum, cerebellus, brain stem and spinal cord and examined histologically to evaluate potential effects on brain histopathology. In addition, these sections were examined with immunohistochemical stains for GFAP for evidence of gliosis and Calbindin for a more comprehensive examination of cerebellar Purkinje cells.

cynomolgus monkey = assay: Single dose toxicity in cynomolgus monkeys; format: in vivo; details: oral gavage
Protocol: The objective of the study was to determine the toxicity and toxicokinetic profile of noribogaine following oral (gavage) administration to the cynomolgus monkey. Each dose was followed by a 7 day washout period. Dosing was staggered by 45 minutes. On study day 15, one animal was administered 80 mg/kg and the other animal was administered 160 mg/kg. The test article was administered as follows in Table 1:
Parameters monitored on the study included: mortality, clinical signs and body weights. Blood samples were collected for TK evaluation. […] The single dose maximum tolerated dose (MTD) was determined to be greater than 160 mg/kg based on the parameters monitored during the study.

[2] = system: healthy, drug-free male volunteers; assay: Safety and tolerability of noribogaine in healthy humans; format: in vivo, human
Protocol: (§1) Safety and tolerability of noribogaine were tested in the group of volunteers from Example 9. […] Safety evaluations included clinical monitoring, recording of adverse events (AEs), safety laboratory tests, vital signs, ECG telemetry from −2 h to 6 h after dosing, and 12-lead electrocardiograms (ECGs) up to 216 hours post-dosing.

Sprague-Dawley rat = assay: Food maintained responding test, regulation of food intake in rats; format: in vivo
[3] = system: healthy, drug-free male volunteers; assay: Cold pressor test in healthy volunteers; format: in vivo, human; details: 3-60 mg single oral dose, 1° C. water
Protocol: Analgesic effect was assessed based on duration of hand immersion in ice water and on visual analog scale (VAS) pain scores upon hand removal from the water bath.
as §1

[4] = dog, plasma, po, female dogs, 5.0 mg/kg, D 14

CC[C@H]1CC2C[C@H]3c4[nH]c5ccc(O)cc5c4CCN(C2)C13 [noribogaine]
Cmax at 1 day of dosing ([1]; dog, plasma, po, female dogs, 0.5 mg/kg, D 1): 25.3 ng/mL | Cmax at 14 day of dosing ([1]; dog, plasma, po, female dogs, 0.5 mg/kg, D 14): 29.8 ng/mL | Cmax at 1 day of dosing ([1]; dog, plasma, po, female dogs, 1.0 mg/kg, D 1): 68.5 ng/mL | Cmax at 14 day of dosing ([1]; dog, plasma, po, female dogs, 1.0 mg/kg, D 14): 74.1 ng/mL | Cmax at 1 day of dosing ([1]; dog, plasma, po, female dogs, 5.0 mg/kg, D 1): 691 ng/mL | Cmax at 14 day of dosing [1, 4]: 683 ng/mL | Tmax at 14 day of dosing [1, 4]: 0.6 h | AUC0-24 h ([1]; female dogs, 0.5 mg/kg, D 1): 40.4 ng·h/mL | AUC0-last ([1]; female dogs, 0.5 mg/kg, D 1): 31.5 ng·h/mL | AUC0-∞ ([1]; female dogs, 0.5 mg/kg, D 1): 44.9 ng·h/mL | T1/2 ([1]; female dogs, 0.5 mg/kg, D 1): 1.0 h | Tmax ([1]; female dogs, 0.5 mg/kg, D 1): 0.5 h | AUC0-24 h ([1]; female dogs, 0.5 mg/kg, D 14): 55.0 ng·h/mL | AUC0-last ([1]; female dogs, 0.5 mg/kg, D 14): 35.4 ng·h/mL | AUC0-∞ ([1]; female dogs, 0.5 mg/kg, D 14): 45.7 ng·h/mL | T1/2 ([1]; female dogs, 0.5 mg/kg, D 14): 1.1 h | Tmax ([1]; female dogs, 0.5 mg/kg, D 14): 1.0 h | AUC0-24 h ([1]; female dogs, 1.0 mg/kg, D 1): 176.2 ng·h/mL | AUC0-last ([1]; female dogs, 1.0 mg/kg, D 1): 148.9 ng·h/mL | AUC0-∞ ([1]; female dogs, 1.0 mg/kg, D 1): 165.3 ng·h/mL | T1/2 ([1]; female dogs, 1.0 mg/kg, D 1): 1.4 h | Tmax ([1]; female dogs, 1.0 mg/kg, D 1): 0.8 h | AUC0-24 h ([1]; female dogs, 1.0 mg/kg, D 14): 203.7 ng·h/mL | AUC0-last ([1]; female dogs, 1.0 mg/kg, D 14): 169.0 ng·h/mL | AUC0-∞ ([1]; female dogs, 1.0 mg/kg, D 14): 197.0 ng·h/mL | T1/2 ([1]; female dogs, 1.0 mg/kg, D 14): 1.6 h | Tmax ([1]; female dogs, 1.0 mg/kg, D 14): 0.5 h | AUC0-24 h ([1]; female dogs, 5.0 mg/kg, D 1): 3367.9 ng·h/mL | AUC0-last ([1]; female dogs, 5.0 mg/kg, D 1): 3367.9 ng·h/mL | AUC0-∞ ([1]; female dogs, 5.0 mg/kg, D 1): 3425.7 ng·h/mL | T1/2 ([1]; female dogs, 5.0 mg/kg, D 1): 4.3 h | AUC0-24 h ([1]; female dogs, 5.0 mg/kg, D 14): 5951.2 ng·h/mL | AUC0-last ([1]; female dogs, 5.0 mg/kg, D 14): 5951.2 ng·h/mL | AUC0-∞ ([1]; female dogs, 5.0 mg/kg, D 14): 6283.2 ng·h/mL | T1/2 ([1]; female dogs, 5.0 mg/kg, D 14): 5.7 h | AUC0-24 h ([1]; male dogs, 0.5 mg/kg, D 1): 59.7 ng·h/mL | AUC0-last ([1]; male dogs, 0.5 mg/kg, D 1): 46.6 ng·h/mL | AUC0-∞ ([1]; male dogs, 0.5 mg/kg, D 1): 67.8 ng·h/mL | Cmax ([1]; male dogs, 0.5 mg/kg, D 1): 28.8 ng/mL | T1/2 ([1]; male dogs, 0.5 mg/kg, D 1): 1.3 h | Tmax ([1]; male dogs, 0.5 mg/kg, D 1): 0.7 h | AUC0-24 h ([1]; male dogs, 0.5 mg/kg, D 14): 64.5 ng·h/mL | AUC0-last ([1]; male dogs, 0.5 mg/kg, D 14): 53.2 ng·h/mL | AUC0-∞ ([1]; male dogs, 0.5 mg/kg, D 14): 68.2 ng·h/mL | Cmax ([1]; male dogs, 0.5 mg/kg, D 14): 29.4 ng/mL | T1/2 ([1]; male dogs, 0.5 mg/kg, D 14): 1.3 h | Tmax ([1]; male dogs, 0.5 mg/kg, D 14): 0.7 h | AUC0-24 h ([1]; male dogs, 1.0 mg/kg, D 1): 119.8 ng·h/mL | AUC0-last ([1]; male dogs, 1.0 mg/kg, D 1): 102.5 ng·h/mL | AUC0-∞ ([1]; male dogs, 1.0 mg/kg, D 1): 120.8 ng·h/mL | Cmax ([1]; male dogs, 1.0 mg/kg, D 1): 58.6 ng/mL | T1/2 ([1]; male dogs, 1.0 mg/kg, D 1): 1.2 h | Tmax ([1]; male dogs, 1.0 mg/kg, D 1): 0.9 h | AUC0-24 h ([1]; male dogs, 1.0 mg/kg, D 14): 210.4 ng·h/mL | AUC0-last ([1]; male dogs, 1.0 mg/kg, D 14): 172.3 ng·h/mL | AUC0-∞ ([1]; male dogs, 1.0 mg/kg, D 14): 195.7 ng·h/mL | Cmax ([1]; male dogs, 1.0 mg/kg, D 14): 67.6 ng/mL | T1/2 ([1]; male dogs, 1.0 mg/kg, D 14): 1.8 h | Tmax ([1]; male dogs, 1.0 mg/kg, D 14): 0.8 h | AUC0-24 h ([1]; male dogs, 5.0 mg/kg, D 1): 3515.0 ng·h/mL | AUC0-last ([1]; male dogs, 5.0 mg/kg, D 1): 3515.0 ng·h/mL | AUC0-∞ ([1]; male dogs, 5.0 mg/kg, D 1): 3630.5 ng·h/mL | Cmax ([1]; male dogs, 5.0 mg/kg, D 1): 693 ng/mL | T1/2 ([1]; male dogs, 5.0 mg/kg, D 1): 4.7 h | AUC0-24 h ([1]; male dogs, 5.0 mg/kg, D 14): 6403.3 ng·h/mL | AUC0-last ([1]; male dogs, 5.0 mg/kg, D 14): 6403.3 ng·h/mL | AUC0-∞ ([1]; male dogs, 5.0 mg/kg, D 14): 6961.4 ng·h/mL | Cmax ([1]; male dogs, 5.0 mg/kg, D 14): 716 ng/mL | T1/2 ([1]; male dogs, 5.0 mg/kg, D 14): 6.5 h | Tmax ([1]; male dogs, 5.0 mg/kg, D 14): 0.9 h | single dose maximum tolerated dose (MTD) (cynomolgus monkey): greater than 160 mg/kg | mortality and clinical signs (cynomolgus monkey; doses up to and including 160 mg/kg): No mortality or treatment related clinical signs | adverse events, Mild ([2]; 3 mg): Dizziness; also recorded: Epistaxis; also recorded: Headache; also recorded: Back pain | adverse events, Moderate ([2]; 3 mg): Headache | number of adverse events reported ([2]; 3 mg dose group): five adverse events were reported by two subjects | adverse events, Mild ([2]; 10 mg): Headache | number of adverse events reported ([2]; 10 mg dose group, single subject): one adverse event | adverse events, Mild ([2]; 30 mg): Headache | number of adverse events reported ([2]; 30 mg dose group, single subject): one adverse event | oximetry, capnography, respiratory rate ([2]; 3-60 mg): no changes in oximetry or capnography, or changes in respiratory rate | vital signs and safety laboratory tests ([2]; 3-60 mg): no changes in vital signs or safety laboratory tests of note | QTcF values ([2]; 3-60 mg, at any time): ≤ 500 ms | single increase in QTcF ([2]; one subject dosed with 10 mg, 24 hours post-dosing): > 60 ms | decrease in food intake (Sprague-Dawley rat; 25 mg/kg PO, P<0.05): 10% | decrease in food intake (Sprague-Dawley rat; 50 mg/kg PO, P<0.001): 25% | effect on food consumption compared to vehicle (Sprague-Dawley rat; noribogaine 12.5 mg/kg PO 2 hours prior to test): no significant effect; also recorded: no effect on food consumption | effect on food consumption compared to vehicle (Sprague-Dawley rat; noribogaine 25 mg/kg PO 2 hours prior to test, P<0.05): significantly decreased food consumption | effect on food consumption compared to vehicle (Sprague-Dawley rat; noribogaine 50 mg/kg PO 2 hours prior to test, P<0.001): significantly decreased food consumption | analgesic effect (duration of hand immersion, VAS pain scores) [3]: no analgesic effect
